Measured values as given in ChEMBL document CHEMBL5625187, “A facile and selective derivatization approach on kynurenine-NH2 in daptomycin, leading to the discovery of hexakynomycin to combat multidrug-resistant Gram-positive pathogens especially daptomycin-resistant bacteria” (Eur J Med Chem, 2023).
≈ marks a conversion by molar mass, not a printed value. Calls of active or inactive are those of the source. The calls are words filed in the database; no cut-off is given here.

Tests used:
Staphylococcus aureus [1] = experiment: Potency index, ratio of daptomycin MIC to test compound MIC for antibacterial activity against methicillin-susceptible Staphylococcus aureus Newman ATCC 25904; type: functional
Enterococcus faecalis [2] = experiment: Antibacterial activity against Enterococcus faecalis ATCC 29212 assessed as reduction in microbial growth incubated for 24 hrs by broth microdilution method; type: functional
Enterococcus faecalis [3] = experiment: Potency index, ratio of daptomycin MIC to test compound MIC for antibacterial activity against Enterococcus faecalis ATCC 29212; type: functional
[4] = Solubility of compound in saline at >10 mg/ml at room temperature; type: physicochemical; details: buffer
Enterococcus faecium [5] = experiment: Antibacterial activity against glycopeptide-resistant Enterococcus faecium Efm-HS-0649 assessed as reduction in microbial growth incubated for 24 hrs by broth microdilution method; type: functional
Enterococcus faecium [6] = experiment: Potency index, ratio of daptomycin MIC to test compound MIC for antibacterial activity against glycopeptide-resistant Enterococcus faecium Efm-HS-0649; type: functional
Staphylococcus aureus [7] = experiment: Antimicrobial activity in Staphylococcus aureus Newman ATCC 25904 infected in ICR mouse excisional wound model assessed as decrease in bacterial growth at 20 mg/kg administered topically and measured after 24 hrs relative to control; type: functional; parameters: scale not given: the % may be the effect or the level left; details: route top
Enterococcus faecium [8] = experiment: Potency index, ratio of daptomycin MIC to test compound MIC for antibacterial activity against Enterococcus faecium EFM 20-1; type: functional
Staphylococcus aureus [9] = experiment: Antibacterial activity against methicillin-resistant Staphylococcus aureus clinical isolate 20-2 assessed as reduction in microbial growth incubated for 24 hrs by broth microdilution method; type: functional
Staphylococcus aureus [10] = experiment: Antibacterial activity against methicillin-resistant Staphylococcus aureus USA300 assessed as reduction in microbial growth incubated for 24 hrs by broth microdilution method; type: functional
[11] = Toxicity in ICR mouse excisional wound model infected with Staphylococcus aureus Newman ATCC 25904 assessed as survival at 20 mg/kg administered topically for 7 days; type: organism-based; details: in vivo, topical_or_ocular, 168 h, route top, time 7 day
Staphylococcus aureus [12] = experiment: Antibacterial activity against Staphylococcus aureus assessed as reduction in bacterial growth incubated for 16 to 24 hrs in presence of MHB medium by serial dilution method; type: functional; details: time 16-24 hrs
Enterococcus faecium [13] = experiment: Antibacterial activity against Enterococcus faecium EFM 20-1 assessed as reduction in microbial growth incubated for 24 hrs by broth microdilution method; type: functional
Staphylococcus aureus [14] = experiment: Antibacterial activity against Staphylococcus aureus assessed as reduction in bacterial growth incubated for 16 to 24 hrs in presence of PG by serial dilution method; type: functional; details: time 16-24 hrs
Staphylococcus aureus [15] = experiment: Antibacterial activity against vancomycin-intermediate resistant Staphylococcus aureus ATCC 700699 assessed as reduction in microbial growth incubated for 24 hrs by broth microdilution method; type: functional
Staphylococcus aureus [16] = experiment: Potency index, ratio of daptomycin MIC to test compound MIC for antibacterial activity against methicillin-susceptible Staphylococcus aureus clinical isolate 20-1; type: functional
Enterococcus faecalis [17] = experiment: Potency index, ratio of daptomycin MIC to test compound MIC for antibacterial activity against Enterococcus faecalis EFA 20-1; type: functional
Staphylococcus aureus [18] = experiment: Antibacterial activity against Staphylococcus aureus infected in zebra fish model assessed as survival rate at 10 mg/kg, ip after 8 hrs by relative to control; type: functional
Staphylococcus aureus [19] = experiment: Antibacterial activity against methicillin-susceptible Staphylococcus aureus Newman ATCC 25904 assessed as reduction in microbial growth incubated for 24 hrs by broth microdilution method; type: functional
Staphylococcus aureus [20] = experiment: Induction of membrane disruption in Staphylococcus aureus at 4 to 16 ug/ml incubated for 4 hrs by propidium iodide staining based flow cytometric analysis; type: functional, organism-based; details: dose 4-16 µg/ml
[21] = Half life in PBS at pH 7.2 to 7.4 at 37 degC for 24 hrs; type: ADME
[22] = Toxicity in ICR mouse excisional wound model infected with Staphylococcus aureus Newman ATCC 25904 assessed as change in weight at 20 mg/kg administered topically for 7 days; type: organism-based; details: in vivo, topical_or_ocular, 168 h, route top, time 7 day
Enterococcus faecalis [23] = experiment: Antibacterial activity against Enterococcus faecalis EFA 20-1 assessed as reduction in microbial growth incubated for 24 hrs by broth microdilution method; type: functional
Staphylococcus aureus [24] = experiment: Antibacterial activity against methicillin-resistant Staphylococcus aureus clinical isolate 20-1 assessed as reduction in microbial growth incubated for 24 hrs by broth microdilution method; type: functional
Staphylococcus aureus [25] = experiment: Antibacterial activity against Staphylococcus aureus assessed as reduction in bacterial growth incubated for 16 to 24 hrs by serial dilution method; type: functional; details: time 16-24 hrs
Staphylococcus aureus [26] = experiment: Antibacterial activity against Staphylococcus aureus infected in zebra fish model assessed as survival rate at 10 mg/kg, ip after 24 hrs by relative to control; type: functional
Enterococcus faecalis [27] = experiment: Antibacterial activity against vancomycin-resistant Enterococcus faecalis VREfa 20-1 assessed as reduction in microbial growth incubated for 24 hrs by broth microdilution method; type: functional
Staphylococcus aureus [28] = experiment: Antibacterial activity against methicillin-resistant Staphylococcus aureus clinical isolate 20-3 infected in iv dosed Kunming mouse model assessed as increase in survival measured after 14 days; type: functional; details: Clinical isolate 20-3, 336 h, time 14 day
Staphylococcus aureus [29] = experiment: Antibacterial activity against vancomycin-intermediate resistant Staphylococcus aureus Mu 50 assessed as reduction in microbial growth incubated for 24 hrs by broth microdilution method; type: functional
Staphylococcus aureus [30] = experiment: Antibacterial activity against methicillin-susceptible Staphylococcus aureus ATCC 29213 assessed as reduction in microbial growth incubated for 24 hrs by broth microdilution method; type: functional
Staphylococcus aureus [31] = experiment: Potency index, ratio of daptomycin MIC to test compound MIC for antibacterial activity against methicillin-susceptible Staphylococcus aureus ATCC 29213; type: functional
Staphylococcus aureus [32] = experiment: Antibacterial activity against methicillin-susceptible Staphylococcus aureus clinical isolate 20-1 assessed as reduction in microbial growth incubated for 24 hrs by broth microdilution method; type: functional
HEK293 = experiment: Cytotoxicity against HEK293 cells assessed as reduction in cell viability at 80 ug/ml after 72 hrs by CCK-8 assay relative to control; type: toxicity, cell-based; details: human, hek293, 72 h, at 80 µg/mL
[33] = Observed volume of distribution at steady state in CD-1 mouse at 1 mg/kg, iv measured up to 24 hrs by UPLC-MS analysis; type: ADME, organism-based; details: in vivo, read-out: Vdss
Staphylococcus aureus [34] = experiment: Ratio of MIC for antibacterial activity against Staphylococcus aureus in presence of MHB medium to MIC for antibacterial activity against Staphylococcus aureus CAMHB medium; type: functional
Staphylococcus aureus [35] = experiment: Ratio of MIC for antibacterial activity against Staphylococcus aureus in presence of PG to MIC for antibacterial activity against Staphylococcus aureus; type: functional
Erythrocyte = experiment: Hemolytic activity in rat RBC at 400 ug/ml incubated for 1 hr; type: toxicity, cell-based; details: dose 400 µg/ml
Staphylococcus aureus [36] = experiment: Antibacterial activity against Staphylococcus aureus assessed as reduction in bacterial growth incubated for 16 to 24 hrs in presence of CAMHB medium by serial dilution method; type: functional; details: time 16-24 hrs
Staphylococcus aureus [37] = experiment: Antibacterial activity against methicillin-resistant Staphylococcus aureus clinical isolate 20-3 assessed as reduction in microbial growth incubated for 24 hrs by broth microdilution method; type: functional
Staphylococcus aureus [38] = experiment: Induction of drug resistance against Staphylococcus aureus Newman ATCC 25904 assessed as fold increase in MIC after 15 days by broth microdilution method; type: functional; details: time 15.0 day
[39] = Solubility of compound in deionized water at >10 mg/ml at room temperature; type: physicochemical; details: buffer

In the case of `CCCCCCCCCC(=O)N[C@@H](Cc1c[nH]c2ccccc12)C(=O)N[C@H](CC(N)=O)C(=O)N[C@@H](CC(=O)O)C(=O)N[C@@H]1C(=O)NCC(=O)N[C@@H](CCCN)C(=O)N[C@@H](CC(=O)O)C(=O)N[C@H](C)C(=O)N[C@@H](CC(=O)O)C(=O)NCC(=O)N[C@H](CO)C(=O)N[C@@H]([C@H](C)CC(=O)O)C(=O)N[C@@H](CC(=O)c2ccccc2NCCCCCC)C(=O)O[C@@H]1C`, the Ratio (Staphylococcus aureus [1]) is reported as 4, the MIC (Enterococcus faecalis [2]) is reported as 0.5 µg/mL and the Ratio (Enterococcus faecalis [3]) is reported as “>=4”. For the same molecule, the solubility [4] was “Soluble”, the MIC (Enterococcus faecium [5]) was 0.25 µg/mL and the Ratio (Enterococcus faecium [6]) was 4. The Activity (Staphylococcus aureus [7]) was 100%, the Ratio (Enterococcus faecium [8]) was “>=4” and the MIC (Staphylococcus aureus [9]) was 0.03 µg/mL. For the same molecule, the MIC (Staphylococcus aureus [10]) was 0.125 µg/mL, the Activity [11] was “Non-Toxic” and the MIC (Staphylococcus aureus [12]) was 4 µg/mL. The MIC (Enterococcus faecium [13]) was 1 µg/mL, the MIC (Staphylococcus aureus [14]) was 256 µg/mL and the MIC (Staphylococcus aureus [15]) was 2 µg/mL. The Ratio (Staphylococcus aureus [16]) was “>=4”, the Ratio (Enterococcus faecalis [17]) was “>=4” and the survival at 10 mg/kg (Staphylococcus aureus [18]) was 37.5%. The MIC (Staphylococcus aureus [19]) was 0.5 µg/mL, the Activity (Staphylococcus aureus [20]) was “Active” and the half-life [21] was 19 days. For the same molecule, the Activity [22] was “Non-Toxic”, the MIC (Enterococcus faecalis [23]) was 0.5 µg/mL and the MIC (Staphylococcus aureus [24]) was ≤ 8 ng/mL. It also gave an MIC (Staphylococcus aureus [25]) of 0.5 µg/mL (≈ 0.293 µM), a survival at 10 mg/kg (Staphylococcus aureus [26]) of 25% and an MIC (Enterococcus faecalis [27]) of 0.5 µg/mL. The ED50 (Staphylococcus aureus [28]) was 0.29 mg/kg, the MIC (Staphylococcus aureus [29]) was 2 µg/mL and the MIC (Staphylococcus aureus [30]) was ≤ 8 ng/mL. For the same molecule, the Ratio (Staphylococcus aureus [31]) was “>=4”, the MIC (Staphylococcus aureus [32]) was 0.015 µg/mL and the Activity (HEK293) was ~ 100%. It also gave a Vd [33] of 0.2 L/kg, a Ratio (Staphylococcus aureus [34]) of 8 and a Ratio (Staphylococcus aureus [35]) of 512. For the same molecule, the Activity (Erythrocyte) was “Non-Toxic”, the MIC (Staphylococcus aureus [36]) was 0.5 µg/mL and the MIC (Staphylococcus aureus [37]) was ≤ 8 ng/mL. The fold change (FC) (Staphylococcus aureus [38]) was 4 and the solubility [39] was “Soluble”.
